Laboratory results reported in PMC9884808, “Pharmacokinetics, tissue distribution, and antitumor activity of a novel compound, NY-2, in non-small cell lung cancer” (Frontiers in Pharmacology, 2023).
“Also recorded” adds a separate entry of the source.

How the values were obtained:
[1] = system: HCT116; experiment: MTT cell viability assay; assay type: cell-based, human; conditions: Homo sapiens, HCT-116, HCT116 colorectal cancer cells
Experimental: (§1) The human colorectal cancer cell lines, HCT116 and LoVo, the breast cancer cell line, T47D, the hepatocellular carcinoma cell line, HepG2, the normal human liver cell line, HL7702, human umbilical vein endothelial cells (HUVECs), and the non-small cell lung cancer cell lines, A549, H1993, HCC827, H460, were purchased from the American Type Culture Collection (Manassas, VA, United States). Cell lines were cultured in the recommended RPMI-1640 medium (AE24464298, Hyclone, United States) and DMEM medium (AE29422278, Hyclone, United States) supplemented with 10% fetal bovine serum (FBS; JC63470, FB15015, Clark, United States) with 1% penicillin-streptomycin. Cells were maintained in an incubator at 37°C with 5% CO2 (HF90,Sanyo, Japan) and passaged every 48–72 h, after detaching with 0.25% trypsin (Sigma, United States). The compounds ZLDI-8 and NY-1 to -15 were synthesized in the laboratory of Dr. Huaiwei Ding in Shenyang Pharmaceutical University, and verified by high-performance liquid chromatography (purity >95%) for use in experiments (Supplementary Figure S1). Paclitaxel was purchased from MedChemExpress (HY-B0015, 99.97% purity, United States).
(§2) Cell viability was measured by the MTT assay. HCT116, HL7702, A549, H1993, HCC827, and H460 cells were dispensed into 96-well plates at a density of 1 × 10^5 cells/mL. After 24–48 h incubation, cells were treated with the compounds at different concentrations for the indicated periods. An assay kit (WLA073, Wanlei Co., Liaoning, China), was used according to the manufacturer’s instructions to measure LDH activity, The absorbance at 450 nm was measured with a microplate reader (Elx-800, Bio-Rad, China).
The preliminary antitumor activity of the series of ZLDI-8 derivatives, NY-1 to -15 was screened by the MTT cell viability assay. […] The antitumor activity of NY-2 on HCT116 cells was concentration- and time-dependent, and slightly better than that of the original compound, ZLDI-8.

[2] = system: normal human liver cell line, HL7702; experiment: MTT cytotoxicity on normal cells; assay type: cell-based; conditions: 48 h; for cytotoxic effects on normal liver cells (HL7702): concentration ≤10 μM
Experimental: as §1, §2
(§3) First, the effects of NY-2 and ZLDI-8 on the survival rates of four NSCLC cell lines, A549, H1993, HCC827, H460, were compared by the MTT cytotoxicity assay. The various types of NSCLC cells were incubated with increasing concentrations of NY-2 and ZLDI-8 (1.25, 2.5, 5, 10, and 20 μM), and the cell viability at 48 h was measured. […]

[3] = system: HUVECs; experiment: MTT cytotoxicity on normal cells; assay type: cell-based, human; conditions: concentration of 10 μM or below, 48 h
Experimental: The human colorectal cancer cell lines, HCT116 and LoVo, the breast cancer cell line, T47D, the hepatocellular carcinoma cell line, HepG2, the normal human liver cell line, HL7702, human umbilical vein endothelial cells (HUVECs), and the non-small cell lung cancer cell lines, A549, H1993, HCC827, H460, were purchased from the American Type Culture Collection (Manassas, VA, United States). Cell lines were cultured in the recommended RPMI-1640 medium (AE24464298, Hyclone, United States) and DMEM medium (AE29422278, Hyclone, United States) supplemented with 10% fetal bovine serum (FBS; JC63470, FB15015, Clark, United States) with 1% penicillin-streptomycin. […]
Cell viability was measured by the MTT assay. […] An assay kit (WLA073, Wanlei Co., Liaoning, China), was used according to the manufacturer’s instructions to measure LDH activity, The absorbance at 450 nm was measured with a microplate reader (Elx-800, Bio-Rad, China).
as §3

[4] = system: A549 cells; experiment: Colony formation assay; assay type: cell-based, human; conditions: 2.5, 5, 10 μM; 9 days of growth
[5] = Hepatotoxicity and nephrotoxicity experiments in KM mice; assay type: in vivo; conditions: for pathological changes of liver and kidney tissues (H&E): vs control; for effect on overall antioxidant capacity: T-AOC kit, ABTS method
Experimental: Animal experiments were approved by the Ethics Committee on Laboratory Animal Management of Shenyang Pharmaceutical University (Approval Document No. SYPU-SQ-001). All animals received humane care according to the local guidelines for the Care and Use of Laboratory Animals of the Shenyang Pharmaceutical University. All animals were housed under specific pathogen-free (SPF) conditions at 25°C with 50% humidity, with free access to food and water for 7 days to adapt. KM mice (male, 4–5 weeks old and weighing 18–22 g) were purchased from Liaoning Changsheng Biotechnology Co., Ltd. (Liaoning, China, animal license #SCXK-2020–0001). For the hepatotoxicity and nephrotoxicity assays, NY-2 was injected via tail vein into KM mice, and the results were used in deciding on the test dose for antitumor activity in a nude mouse cancer model. Its influence on the immune system was also determined. The treatment groups were ZLDI-8, NY-2, DMSO control, and normal saline control, with six mice in each group. The mice were fasted for 12 h before the experiment, but were allowed to drink water freely. ZLDI-8 and NY-2 were dissolved in 1% DMSO containing 1% Tween and 6 mg/kg was administered by a daily tail vein injection for seven consecutive days ([Lu et al., 2020]).
After injection of the compounds, blood was drawn and serum was collected for the determination of ALT and AST levels (Nanjing Jiancheng Bioengineering Institute, China, C009-2-1 and C010-2-1) to assess liver function. Serum creatinine (sCr, Nanjing Jiancheng Bioengineering Institute, China, C011-2-1) and blood urea nitrogen (BUN, Nanjing Jiancheng Bioengineering Institute, China, C013-2-1) were measured to assess renal function. Tumor necrosis factor-α (TNF-α, Cusabio, Wuhan, China, CSB-E04741m) and interleukin-6 (IL-6, Cusabio, Wuhan, China, CSB-E04639m) were used as markers to evaluate the immune inflammatory response, and an assay kit (T-AOC, S0119, Beyotime) was used to measure total antioxidant capacity by the ABTS method. Mice were euthanized by cervical dislocation, liver and kidney tissue was removed and fixed in formalin, dehydrated in ethanol, embedded in paraffin, and sectioned for staining with hematoxylin and eosin (H&E).
KM mice were treated with ZLDI-8 or NY-2 by tail vein injection (6 mg/kg) for 7 days, then the mice were euthanized and liver and kidney tissues were removed and sectioned. For the experiment with BALB/c nude mice, the tail vein injections of NY-2 (6 mg/kg) were continued for 28 days, and the lungs, tumor, heart, liver, and kidney were removed. Trimmed tissue samples were fixed in 4% paraformaldehyde for 24 h, dehydrated in graded ethanol solutions, embedded in paraffin and sectioned. Sections for staining were dewaxed with xylene and then rehydrated, and hematoxylin-eosin staining was performed, after which the sections were again dehydrated in ethanol and cleared with xylene before being mounted on a slide, cover-slipped and examined microscopically. The remainder of the tumors and tissues was frozen in liquid nitrogen for other studies.

[6] = system: Notch1 and integrinβ1; experiment: Western blot protein analysis; assay type: cell-based, human
Source text: Antibodies against ADAM17 (Cat. No. ab39163), Notch1 (Cat. No. ab52627), integrin β1 (Cat. No. ab52971), β-actin (Cat. No. ab8226), and anti-rabbit IgG (Cat. No. ab6728) and anti-mouse IgG (Cat. No. ab190475) secondary antibodies conjugated with horseradish peroxidase (HRP) were purchased from Abcam (Cambridge, United Kingdom). Total protein was extracted from HCC cells, and samples were separated by SDS-PAGE and blotted to polyvinylidene fluoride (PVDF) membranes (Millipore, Billerica, MA, United States). The membranes were blocked and then incubated with primary antibodies, followed by washing and incubation with HRP-conjugated secondary antibodies. Stained blots were developed with enhanced chemiluminescence reagents (Pierce, Rockford, IL, United States) and imaged on X-ray film.

[7] = 6 mg/kg daily tail vein injection, 7 days

Structure (SMILES)	IC50 [1]	cytotoxic effects on normal liver cells (HL7702) [2]	toxic effects on normal liver cells (HL7702) ([2]; concentrations >10 μM)	cytotoxic effects on HUVEC cells [3]	colony formation of A549 cells [4]	effect on IL-6 and TNF-α levels compared with the control group [5, 7]	levels of AST, ALT, sCr, and BUN compared with the control group ([5]; 6 mg/kg daily tail vein injection, 7 days, serum)	pathological changes of liver and kidney tissues (H&E) [5, 7]	effect on overall antioxidant capacity [5]	expression of Notch1 and integrinβ1 [6]	BUN compared with the control group ([5]; 6 mg/kg daily tail vein injection, 7 days, serum, only significant difference)
Cc1c(C=C2C(=O)NC(=S)NC2=O)c2ccccc2n1CCOc1ccc(F)cc1 [NY-2]	5.35 µM	neither ZLDI-8 nor NY-2 had any obvious cytotoxic effects on normal cells; also recorded: no obvious cytotoxic effects	slightly weaker toxic effects than ZLDI-8	no obvious cytotoxic effects	inhibit colony formation of A549 cells in a concentration-dependent manner	no significant effect	no significant differences	no obvious pathological changes	neither ZLDI-8 nor NY-2 had any overt effect	reduced the expression of Notch1 and integrinβ1in a dose-dependence manner	
Cc1ccc(OCCn2c(C)c(C=C3C(=O)NC(=S)NC3=O)c3ccccc32)c(C)c1 [ZLDI-8, reference compound]	7.72 µM	neither ZLDI-8 nor NY-2 had any obvious cytotoxic effects on normal cells				no significant effect		no obvious pathological changes	neither ZLDI-8 nor NY-2 had any overt effect		possible decrease
